The numbers were not newly measured in US6673767B1, “Gel composition and methods” (Alza Corporation, priority 1996, dated 2004), which cites them from elsewhere.

For this data set the following is noted: for Water Miscibility: solvent in water (Merck).

As for `O=C(OCc1ccccc1)c1ccccc1` [Benzyl Benzoate, benzyl benzoate], the “Water Miscibility” value is reported as “insol. in water (Merck)”.

Turning to `CN1CCCC1=O` [NMP, N-methyl-2-pyrrolidone], the “Water Miscibility” value was “misc. with water (Merck)”.

Turning to `CC(=O)OCC(COC(C)=O)OC(C)=O` [Triacetin, triacetin], the “Water Miscibility” value is 7% sol. in water (Merck). The “reported solubility in water” value (solvent in water) is reported as 7.17 grams in 100 ml of water.
